Assay results from publication PMC6201879, “N-substituted phenylbenzamides of the niclosamide chemotype attenuate obesity related changes in high fat diet fed mice” (PLoS ONE, 2018).
Values joined by “and” are separate entries in the source; they are usually repeats but may differ in a detail not shown here. Equal entries are not always repeated. “Also recorded” adds a separate entry of the source.

How the values were obtained:
[1] = system: Salmonella typhimurium TA98; test: Ames assay, strain TA98; conditions: Positive Control chemical; concentration not given; without S9
PH5CH8 liver cells = test: High-throughput hepatic de novo lipogenesis (DNL) assay, high content imaging of steatotic phenotype; assay type: cell-based, human; conditions: for Active/Inactive / IC50: S1 Table, SAR for N-Substituted Phenylbenzamides; for IC50: read-out: IC50
[2] = system: HEK293 cells stably transduced with the human OCT3 transporter; test: Cellular oxygen consumption rate (OCR), MitoXpress Xtra; assay type: cell-based; conditions: HEK293 cells expressing human OCT3; compared to DMSO control; 2 hours
Protocol: Oxygen consumption rate experiments were performed by ZenBio, Inc (RTP, NC). HEK293 cells stably transduced with the human OCT3 transporter were plated in black-walled microclear plates (Greiner-BioOne) at 60,000 cells per well in growth medium. Cells were incubated overnight to allow attachment before growth medium was removed and replaced with 150μL of assay medium containing compound dilutions. Four concentrations of each compound were prepared and transferred to the empty wells. Control wells contained assay medium only or assay medium containing […] (FCCP) at 1μM. Ten μL of MitoXpress Xtra reagent was added to each test well and 100μL of pre-warmed mineral oil was overlaid in each well to create a seal. The plates were immediately read on a FLUOstar Omega (BMG) using dual read Time Resolved Fluorescence (TR-F) for 2 hours, with measurements taken every 2 minutes using 340nm and 650nm as excitation and emission wavelengths respectively. For lifetime analysis, two measurements per well were taken: 1) delay of 30μs, with a window of 30μs; and 2) delay of 70μs with a window of 30μs. Background TRF values were subtracted from all readings. A ratiometric analysis was performed to determine changes in the Lifetime fluorescence signal: Lifetime (μs)[T] = (D2-D1)/ln(W1/W2), where D is delay; W is fluorescence window value at each time point. Lifetime slopes were calculated using each Lifetime measurement over time. Data are presented as mean ± standard error (SE). The differences between the control (DMSO) and compound treated wells were analyzed using the Student’s t-test. A value of p≤0.05 was considered statistically significant. […]

[3] = system: phospho-AMPK Thr-172 (p-AMPK); test: Western blot of phospho-AMPK Thr-172 in HEK293T cells; assay type: cell-based, human; conditions: 1 and 10μM, negatives re-screened at 5 and 20 μM, 3 hours
Protocol: AMPK is a metabolic sensor that maintains cellular energy supply. As validation of these changes in lipid metabolism and cellular respiration we evaluated phospho-AMPK Thr-172 (p-AMPK) levels by Western blot in HEK293 cells treated with the phenylbenzamide derivatives. Compounds were screened at 1 and 10μM using the known uncouplers niclosamide and FCCP as positive controls (Fig 4A). […] We concluded that compounds that had little effect on oxygen consumption rates also had little effect on phosphorylation of AMPK.

[4] = system: Salmonella typhimurium TA1537; conditions: Positive Control chemical; concentration not given; without S9
[5] = system: Salmonella typhimurium TA100; conditions: Positive Control chemical; concentration not given; without S9
[6] = system: Salmonella typhimurium TA1535; conditions: Positive Control chemical; concentration not given; without S9

O=[N+]([O-])c1ccc2c(c1)Cc1ccccc1-2 [Compound 2-NF, 2-nitrofluorene, reference compound]
Mean Revertant Colony Counts TA98 S9- [1]: 210.0 and 258.7

COC(=O)c1ccc(NC(=O)c2cc(Cl)ccc2O)c(Cl)c1 [Compound 500189, Methyl 3-chloro-4-[(5-chloro-2-hydroxybenzene)amido]benzoate]
Active/Inactive (PH5CH8 liver cells): Inactive

COC(=O)c1ccc(NC(=O)c2cc(C)ccc2O)c(Cl)c1 [Compound 500828, Methyl 3-chloro-4-[(2-hydroxy-5-methylbenzene)amido]benzoate]
Active/Inactive (PH5CH8 liver cells): Active
IC50 (PH5CH8 liver cells): 1680 nM

COC(=O)c1ccc(NC(=O)c2cc(C(F)(F)F)ccc2O)c(Cl)c1 [Compound 500844, Methyl 3-chloro-4-{[2-hydroxy-5-(trifluoromethyl)benzene]amido}benzoate]
Active/Inactive (PH5CH8 liver cells): Active
IC50 (PH5CH8 liver cells): 70 nM

COc1ccc(O)c(C(=O)Nc2ccc(C(=O)O)cc2C)c1 [Compound 600657, 4-(2-Hydroxy-5-methoxybenzamido)-3-methylbenzoic Acid]
Active/Inactive (PH5CH8 liver cells): Active
change in respiration / oxygen consumption rate (OCR) [2]: no change in respiration; also recorded: did not appear to stimulate phosphorylation of AMPK or increase oxygen consumption rate
phosphorylation of AMPK (p-AMPK Thr-172) by Western blot [3]: no detectable changes in pAMPK levels

N#CC(C#N)=NNc1ccc(OC(F)(F)F)cc1 [FCCP, carbonyl cyanide-p-trifluoromethoxyphenylhydrazone, reference compound]
change in respiration / oxygen consumption rate (OCR) [2]: increased OCR

COc1ccc2nc3cc(Cl)ccc3c(NCCCNCCCl)c2c1 [ICR-191, reference compound]
Mean Revertant Colony Counts TA-1537 S9- [4]: 72.3 and 73.0

[N-]=[N+]=[N-].[Na+] [SA, Sodium Azide, reference compound]
Mean Revertant Colony Counts TA-100 S9- [5]: 133.7 and 120.0
Mean Revertant Colony Counts TA-1535 S9- [6]: 103.3

CCC/C=C/C/C=C/C=C/C=N/NN=O [Triacsin C, reference compound]
reduced steatosis (steatotic phenotype in DNL assay) (PH5CH8 liver cells; PH5CH8, assay validation): 92 ± 19%
